“Also recorded” adds a separate entry of the source.
Assays:
[1] = system: normal human keratinocytes (NHK); assay: MTS cell viability assay in normal keratinocytes; format: cell-based; details: 72 hours, GW843682X 10 μM, BI2536 5 μM
Procedure: For RNAi transfection, cells were seeded in 6-well plates at 2.5×10^5 cells/well and 24 hours later transfected as described above. Cells were left for 16 hours then trypsinized, counted on a CASY counter (Roche Diagnostics Ltd, West Sussex, UK) and seeded in 96 well plates at 3000 cells/well in 100 μl media. Cell viability was determined using the MTS assay as described above, with an absorbance reading at time of seeding (T0) and readings 48 and 72 hour post transfection. For small molecule inhibitor treatment cells were seeded in 96-well plates at 3000 cells/well and 24 hours later 100 μl fresh media containing drug at the designated final concentrations added. Viability was assessed as before.

[2] = system: SCCIC1 xenograft tumors; assay: SCCIC1 xenograft tumor treatment in SCID mice; format: in vivo, SCID Balb/c mice
Procedure: FIG. 6—PLK1 inhibition and c20orf20 knockdown inhibits tumor growth in vivo. Female SCID Balb/c mice were subcutaneously injected in the right flank with 4×10^6 SCCIC1 cells mixed with high-concentration Matrigel®. When tumors reached a volume of 100 mm^3, animals were organised in treated and control groups. (A) Top panel: SCCIC1 tumors were treated with the PLK1 inhibitor, BI 2536. The treated group (n=3) was injected into the tumor with 100 μl of BI 2536 formulated in hydrochloric acid (0.1 N), diluted with 0.9% NaCl at a dose of 25 mg/kg, 3 times a week during 2 weeks. The control group (n=2) was injected with the vehicle at the same schedule. Tumor volumes were measured 3 times a week with a calliper for a further 2 weeks after treatment. Bottom panel: SCCIC1 tumors were treated with c20orf20 siRNA. The treated group (n=3) was injected into the tumor with 580 pmol c20orf20 targeting siRNA duplex in 100 μl PBS. The control group was injected with 580 pmol non-targeting siRNA duplex in approximately 100 μl PBS. Each group was treated every other day for 16 cycles. The animals were sacrificed 2 days after the last treatment. (B) Representative H&E stained section (top) and keratin immunostained section (bottom) of control (left) and BI2536-treated (right) SCCIC1 tumors after 2 weeks of treatment. A subset of animals was sacrificed at the end of the 6 cycles of treatment without waiting 2 more weeks. […] The control tumors contained numerous SCCIC1 cells (100× magnification). (C) Representative pictures from the experiment shown in (A) of vehicle (top left, tumor bisected showing both halves delineated by the dashed line) and BI2536-treated (top right) SCCIC1 tumors. […]
Primary keratinocytes were isolated and grown in the presence of a mitotically inactivated 3T3 feeder layer as described (Rheinwald and Beckett, 1981). […] Tumors were measured by caliper and treatment began when volume reached 100 mm^3.

[3] = system: cSCC keratinocytes (SCCIC1, SCCRDEB2); assay: MTS cell viability assay in cSCC keratinocytes; format: cell-based, human; details: 72 hours, GW843682X 10 μM, BI2536 5 μM
Procedure: For the initial high-throughput RNAi screen we used a custom library to our 21 up regulated genes containing the top 3 siRNA oligonucleotides per gene as ranked by Sigma. In each experiment a negative control (MISSION® siRNA Universal Negative Control #1, Sigma) and positive control (AllStars Hs Cell Death Control siRNA, Qiagen) were used. Cells were seeded in 96-well plates at 5000 cells/well in 100 μl keratinocyte media and transfected 24 hours later with siRNA (40 nM final concentration) using Lipofectamine™ 2000, Invitrogen, Carlsbad, Calif.) diluted in Opti-MEM® (Invitrogen) according to manufacturers instructions. Cell viability was assessed at 48, 72 and 96 hours post-transfection, and a reading taken at time zero (pre-transfection), using the MTS CellTitre 96 AQueous One Solution Cell Proliferation Assay (Promega, Madison, Wis.) according to manufacturers instructions. Absorbance readings were taken at 490 nm using a VersaMax microplate reader (Molecular Devices, Sunnyvale, Calif.).
For RNAi transfection, cells were seeded in 6-well plates at 2.5×10^5 cells/well and 24 hours later transfected as described above. Cells were left for 16 hours then trypsinized, counted on a CASY counter (Roche Diagnostics Ltd, West Sussex, UK) and seeded in 96 well plates at 3000 cells/well in 100 μl media. […] Viability was assessed as before.

[4] = system: cSCC keratinocytes; assay: Cell Death Detection ELISA (apoptosis, cytoplasmic nucleosomes) in cSCC cells; format: cell-based, human; details: GW843682X 10 μM, BI2536 5 μM, relative to drug vehicle control
Procedure: Apoptosis was detected using the Cell Death Detection ELISA^PLUS (Roche Diagnostics Ltd, West Sussex, UK). Cells were seeded in 24-well plates at 0.5×10^5 cells/well for 24 hours and either transfected with siRNA or treated with small molecule inhibitors for 24 or 16 hours respectively before collecting lysates and performing ELISA as described by manufacturer.

[5] = system: cSCC keratinocytes; assay: Cell cycle analysis (BrdU / propidium iodide, flow cytometry); format: cell-based, human; details: 20 hours following drug treatment, GW843682X 10 μM, BI2536 5 μM
Procedure: Cells were RNAi transfected or drug treated for designated times before BrdU (Sigma) was added at 30 μM final volume for 20 min. Cells were collected and fixed by dropping 1 ml cell suspension in PBS into 3 ml ice cold ethanol while vortexing. Pepsin (Sigma) was added at 1 mg/ml in 30 mM HCL for 30 min and DNA denatured with 2N HCL for 20 min. Anti-BrdU antibody (Becton Dickinson) diluted in PBS/0.5% Tween/0.5% BSA was added for one hour followed by 30 min incubation with a FITC-sheep anti-mouse IgG (Sigma). Propidium iodide (Sigma) was added in the final wash step at a concentration of 25 μg/ml and samples analyzed using a FACScan flow cytometer and CellQuest software (Becton Dickinson).

Structure (SMILES)	growth of normal primary keratinocytes (MTS assay) [1]	tumor volume at the end of the 6 cycles of treatment ([2]; BI2536 25 mg/kg injected into the tumor, 3 times a week, 2 weeks, treated versus control group)	presence of tumor keratinocytes in the tumor (histology) ([2]; BI2536 25 mg/kg injected into the tumor, 3 times a week, after 2 weeks of treatment, versus vehicle, 25 mg/kg)	efficacy in treating cSCC in vivo ([2]; BI2536, SCCIC1 xenograft)	cell viability (MTS assay) [3]	apoptosis (cleaved nucleosomes in the cytoplasm) [4]	cell cycle distribution (G0/G1, S, G2/M) [5]
CC[C@@H]1C(=O)N(C)c2cnc(Nc3ccc(C(=O)NC4CCN(C)CC4)cc3OC)nc2N1C1CCCC1 [BI2536]	no effect	no difference in tumor volume	without any discernable SCCIC1 tumor cells; also recorded: marked reduction in the presence of tumor keratinocytes	dramatic efficacy	potent reduction of cell viability	substantial induction of apoptosis	accumulation of cells at the G2/M phase
COc1cc2ncn(-c3cc(OCc4ccccc4C(F)(F)F)c(C(N)=O)s3)c2cc1OC [GW843682X]	no effect				potent reduction of cell viability	substantial induction of apoptosis	accumulation of cells at the G2/M phase
